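Protocol summary: plate cells (96-well), add compound at 5 concentrations, incubate 48 h, interpolate endpoints linearly. Abbreviation: GI50, concentration required for 50% inhibition of growth. Definition used: TGI = concentration required for complete inhibition of growth.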
How the values were obtained:
Test in all cases: NCI anticancer screen, dose series, 48 h
NCI-H522 lung = tested on: NCI-H522 lung
SNB-19 CNS = tested on: SNB-19 CNS
RXF 393 renal = tested on: RXF 393 renal
OVCAR-5 ovarian = tested on: OVCAR-5 ovarian
HL-60(TB) leukemia = tested on: HL-60(TB) leukemia
NCI-H23 lung = tested on: NCI-H23 lung
ACHN renal = tested on: ACHN renal
HCT-116 colon = tested on: HCT-116 colon
786-0 renal = tested on: 786-0 renal
MCF7 breast = tested on: MCF7 breast

Compound	TGI (NCI-H522 lung)	TGI (SNB-19 CNS)	TGI (RXF 393 renal)	TGI (OVCAR-5 ovarian)	TGI (HL-60(TB) leukemia)	TGI (NCI-H23 lung)	TGI (ACHN renal)	TGI (HCT-116 colon)	TGI (786-0 renal)	GI50 (NCI-H522 lung)	GI50 (SNB-19 CNS)	GI50 (OVCAR-5 ovarian)	GI50 (HL-60(TB) leukemia)	GI50 (NCI-H23 lung)	GI50 (MCF7 breast)	TGI (MCF7 breast)	GI50 (ACHN renal)	GI50 (HCT-116 colon)	GI50 (786-0 renal)	GI50 (RXF 393 renal)
Cc1ccc(C)c(N2C(=O)C(=O)C(c3nc4ccccc4s3)C(=O)C2=O)c1	> 100 µM	> 100 µM	> 100 µM	> 100 µM	> 100 µM	> 100 µM	> 100 µM	> 100 µM	> 100 µM	–	–	–	–	–	–	–	–	–	–	–
CC(=O)NS(=O)(=O)c1ccc(-n2nc(-c3ccccc3)cc2-c2cc(O)ccc2O)cc1	> 100 µM	> 100 µM	–	> 100 µM	> 100 µM	> 100 µM	> 100 µM	> 100 µM	> 100 µM	45 µM	> 100 µM	> 100 µM	61.8 µM	> 100 µM	> 100 µM	> 100 µM	> 100 µM	27.2 µM	57.5 µM	–
CC(=O)Nc1ccc(S(=O)(=O)N/N=C/c2cc(I)cc([N+](=O)[O-])c2O)cc1	–	> 100 µM	85.2 µM	> 100 µM	> 100 µM	85 µM	> 100 µM	–	> 100 µM	–	–	–	–	–	–	–	–	–	–	–
OC1CCC(COC(c2ccccc2)(c2ccccc2)c2ccccc2)O1 (stereo unspecified)	31.8 µM	40 µM	–	45.2 µM	39.7 µM	35.4 µM	31.1 µM	30.4 µM	35.2 µM	–	–	–	–	–	–	33.3 µM	–	–	–	–
O=C(Cc1c(C(=O)Nc2ccccc2)sc(C(=O)Nc2ccccc2)c1CC(=O)Nc1ccccc1)Nc1ccccc1	> 100 µM	> 100 µM	> 100 µM	> 100 µM	> 100 µM	> 100 µM	> 100 µM	> 100 µM	> 100 µM	–	–	–	–	–	–	–	–	–	–	–
CCCCN(CCCC)C(=O)C(=O)C(C(=O)C(=O)OC)c1nc2ccccc2o1 (stereo unspecified)	> 100 µM	> 100 µM	99 µM	> 100 µM	> 100 µM	> 100 µM	> 100 µM	> 100 µM	> 100 µM	–	–	–	–	–	–	–	–	–	–	–
Cc1ccccc1C(C#N)/C(=N/NC(N)=S)C(=O)Nc1c(C)cccc1C (stereo unspecified)	–	> 100 µM	> 100 µM	> 100 µM	> 100 µM	> 100 µM	> 100 µM	> 100 µM	> 100 µM	–	–	–	–	–	–	–	–	–	–	–
Cc1cc2c(cc1C)[n+](=O)c(C(=O)CC(=O)C(=O)Nc1ccccc1C)c(C)n2[O-]	> 100 µM	> 100 µM	> 100 µM	> 100 µM	> 100 µM	> 100 µM	> 100 µM	> 100 µM	> 100 µM	–	–	–	–	–	–	–	–	–	–	–
Cn1cnc([N+](=O)[O-])c1Sc1nccn1-c1ccccc1	24.5 µM	> 100 µM	–	> 100 µM	–	79.6 µM	> 100 µM	> 100 µM	> 100 µM	–	–	–	–	–	–	–	–	–	–	–
CC[C@H]1[C@@H](C)C=C[C@@H](C)N1S(=O)(=O)c1ccc(C)cc1	> 100 µM	35.3 µM	> 100 µM	> 100 µM	52 µM	> 100 µM	> 100 µM	> 100 µM	> 100 µM	–	–	–	–	–	–	–	–	–	–	–
S=c1sc2sc(=S)sc2s1	> 100 µM	> 100 µM	> 100 µM	40.2 µM	23.3 µM	–	> 100 µM	> 100 µM	> 100 µM	–	–	–	–	–	–	–	–	–	–	–
Cc1cc2c(=O)cc(-c3ccc(C(=O)O)cc3)oc2c(C(N)=O)c1C	> 100 µM	> 100 µM	–	> 100 µM	–	> 100 µM	> 100 µM	> 100 µM	> 100 µM	–	–	–	–	–	–	–	–	–	–	–
CN(CCNc1ccc(C(=N)N)cc1)c1ccc(C(=N)N)cc1	> 100 µM	> 100 µM	–	> 100 µM	> 100 µM	> 100 µM	> 100 µM	> 100 µM	> 100 µM	27.5 µM	27.8 µM	> 100 µM	49.4 µM	21.6 µM	30.5 µM	> 100 µM	> 100 µM	> 100 µM	> 100 µM	–
COC1OC(CO)C(O)C(NC(=O)N(C)N=O)C1O (stereo unspecified)	> 100 µM	> 100 µM	> 100 µM	–	> 100 µM	> 100 µM	> 100 µM	> 100 µM	> 100 µM	–	–	–	–	–	–	–	–	–	–	–
CN1C(=O)CNS1(=O)=O	–	> 100 µM	> 100 µM	> 100 µM	> 100 µM	> 100 µM	> 100 µM	> 100 µM	> 100 µM	–	–	–	–	–	–	–	–	–	–	–
Cc1cc2c(=O)cc(-c3ccc(Cl)c(Cl)c3)oc2c(C(=O)O)c1C	> 100 µM	> 100 µM	> 100 µM	> 100 µM	–	> 100 µM	> 100 µM	> 100 µM	> 100 µM	–	–	–	–	–	–	–	–	–	–	–
CCOC(=O)c1c2c(n(Cc3ccccc3)c1C)-c1nc[nH]c1C(=O)C2=O	28.8 µM	30.7 µM	23.2 µM	–	10.3 µM	–	27.9 µM	30.4 µM	32.1 µM	15 µM	17 µM	–	2.61 µM	–	–	–	14.8 µM	16 µM	18.1 µM	11.2 µM
Cc1cn2c(/C=N/NC3=NCCN3)c(-c3ccc(Cl)c([N+](=O)[O-])c3)nc2s1	–	> 50 µM	–	17.2 µM	–	27 µM	–	1.72 µM	2.5 µM	–	1.48 µM	6.75 µM	–	5.62 µM	3.8 µM	> 50 µM	–	0.949 µM	0.908 µM	–
CC1=CC=C2C(C)(C)CC[C@@H]3OC(=O)[C@H]1[C@]23C	> 100 µM	> 100 µM	> 100 µM	> 100 µM	> 100 µM	> 100 µM	> 100 µM	> 100 µM	> 100 µM	–	–	–	–	–	–	–	–	–	–	–
O=C(O)COc1ccc2c3c1C(=O)CCC3CO2 (stereo unspecified)	> 100 µM	> 100 µM	–	> 100 µM	> 100 µM	> 100 µM	> 100 µM	> 100 µM	> 100 µM	–	–	–	–	–	–	–	–	–	–	–
O=C1C2=C(c3ccccc31)C(c1ccccc1Cl)NC(=S)N2 (stereo unspecified)	> 100 µM	> 100 µM	–	> 100 µM	> 100 µM	> 100 µM	> 100 µM	> 100 µM	> 100 µM	–	–	–	–	–	–	–	–	–	–	–
C=CCC1=C2CCCCC2CCC1=O (stereo unspecified)	> 100 µM	> 100 µM	> 100 µM	> 100 µM	> 100 µM	> 100 µM	> 100 µM	> 100 µM	> 100 µM	–	–	–	–	–	–	–	–	–	–	–
